Source: PubChem BioAssay AID1053179 (The Scripps Research Institute Molecular Screening Center, 2014)
The source made the active and inactive calls.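 The calls were made as follows: active = IC50 for loss of cell viability, measured as ATP drop, at or below 10 µM; inactive = the rest.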

test system: Jurkat viability, CellTiter-Glo ATP luminescence; assay: viability loss in human Jurkat cells – cell-based, luminescence, powder samples, cytotoxicity control for TAAR1 agonist/antagonist project, late-stage follow-up (AID 1053179)

Compound	IC50
COc1cc(C(=O)CCN2CCC(c3ccccc3)C2)cc(OC)c1OC (configuration not stated)	7.06 µM
N#Cc1c(C(F)(F)F)cc(-c2ccc(Cl)cc2)nc1SCC(=O)N1CCCC1	> 83.3 µM (inactive)
N#Cc1c(C(F)(F)F)cc(-c2ccc(Cl)cc2)nc1SCC(=O)Nc1ncccn1	53 µM (inactive)
CC(CN1CCCC1Cc1ccccc1)C(=O)c1ccc2c(c1)OCCO2 (configuration not stated)	3.66 µM
N#Cc1c(C(F)(F)F)cc(-c2ccc(Cl)cc2)nc1SCC(=O)N1CCCCCC1	> 83.3 µM (inactive)
Cc1ccc(C(=O)CCN2CCC(c3ccccc3)C2)cc1 (configuration not stated)	5.06 µM
O=C(CCN1CCC(c2ccccc2)C1)c1ccccc1 (configuration not stated)	3.95 µM
